Data from PMC6943434, “Novel Homo-Bivalent and Polyvalent Compounds Based on Ligustrazine and Heterocyclic Ring as Anticancer Agents” (Molecules, 2019).
Where two headings read alike, the source gives them in different places.

Experiments:
[1] = test system: HeLa (cervical cancer cell line); assay: MTT cell viability assay, HeLa; format: cell-based; settings: Homo sapiens, 48 h, read-out: Antiproliferative Activity IC50 ± SEM, HeLa
Description: (§1) The tested cells were obtained from Shanghai Institute of Biochemistry and Cell Biology of the Chinese Academy of Sciences (Shanghai, China). HeLa and Hep G2 cell lines were cultured in Dulbecco’s modified Eagle’s medium (DMEM; gibco, Life Technologies, Carlsbad, CA, USA) supplemented with 10% fetal bovine serum (FBS; Biological Industries), 100 U/mL penicillin-streptomycin (PS; gibco, Life Technologies, Carlsbad, CA, USA). MCF-7 and A549 cell lines were maintained in RPMI-1640 media (gibco, Life Technologies, Carlsbad, CA, USA) supplemented with 10% FBS and 100 U/mL PS. FaDu cell lines were cultured in minimum essential medium (MEM; Gibco, Life Technologies, Carlsbad, CA, USA) supplemented with 10% FBS and 100 U/mL PS. MCF 10A cell lines were maintained in Mammary MEGM kit (Lonza/Clonetics) supplemented with 100 ng/mL cholera toxin (Sigma, Shanghai, China). Cell lines were grown at 37 °C in a humidified atmosphere of 5% CO2.
(§2) The growth-inhibitory effects against HeLa, Hep G2, MCF-7, FaDu, and A549 cancer cells and normal cell lines MCF 10A were determined by MTT assay. […] Cells were seeded in 96 well plates at a density of 1 × 10^4 cells per well and incubated for 24 h at 37 °C in a humidified atmosphere of 5% CO2. The cells were then incubated with various concentrations of drugs for 48 h in a 5% CO2 incubator at 37 °C. After treatment with 1 mg/mL 3-(4,5-dimethylthiazol-2-yl)-2,5-diphenyltetrazolium bromide (MTT) solution for 4 h, the formazan crystals were dissolved in 100 µL DMSO in each well. Plates were read on a microplate reader (Thermo Varioskan Flash 3001) at 490 nm. The experiment was performed in triplicate. The inhibitory concentration at 50% (IC50) was calculated based on concentration-inhibition relationships via regression using SPSS software (Version 17.0).

[2] = test system: Hep G2 (hepatocarcinoma cell line); assay: MTT cell viability assay, Hep G2; format: cell-based; settings: Homo sapiens, HepG2, 48 h, read-out: Antiproliferative Activity IC50 ± SEM, Hep G2
Description: as §1, §2

[3] = test system: MCF-7 (breast cancer cell line); assay: MTT cell viability assay, MCF-7; format: cell-based; settings: Homo sapiens, MCF7, 48 h, read-out: Antiproliferative Activity IC50 ± SEM, MCF-7
Description: as §1, §2

[4] = test system: FaDu (head and neck squamous carcinoma cell line); assay: MTT cell viability assay, FaDu; format: cell-based, human; settings: for SI: selectivity index: SI = IC50 (MCF 10A)/IC50 (FaDu); for IC50: 48 h, MTT
Description: as §1, §2

[5] = test system: A549 (epithelial cancer cell line); assay: MTT cell viability assay, A549; format: cell-based; settings: Homo sapiens, 48 h, read-out: Antiproliferative Activity IC50 ± SEM, A549
Description: as §1, §2

[6] = test system: MCF 10A (normal mammary epithelial cell); assay: MTT cell viability assay, MCF 10A; format: cell-based; settings: Homo sapiens, 48 h, normal cells, read-out: Antiproliferative Activity IC50 ± SEM, MCF 10A
[7] = Homo sapiens, FaDu, read-out: Antiproliferative Activity IC50 ± SEM, FaDu

SMILES | IC50 [1] | IC50 [2] | IC50 [3] | SI: selectivity index [4] | IC50 [5] | IC50 [6] | IC50 [4, 7] | IC50 ([4]; Homo sapiens, FaDu, values in nM, read-out: IC50 in FaDu cells) | IC50 ([4]; read-out: Antiproliferative Activity IC50 ± SEM, FaDu)
O=C(/C=C/c1ccc(Cl)cc1)NCCCCCCCCCCNC(=O)/C=C/c1ccc(Cl)cc1 [Compound 25e, (2E,2′E)-N,N′-(Decane-1,10-Diyl)Bis(3-(4-Chlorophenyl)Acrylamide)] | > 20 µM | > 20 µM | > 20 µM | >357.14 | > 20 µM | > 20 µM | – | – | –
O=C(NCCCCCCCCCCNC(=O)c1ccc2ccccc2c1)c1ccc2ccccc2c1 [Compound 12e, N,N′-(Decane-1,10-Diyl)Bis(2-Naphthamide)] | > 100 µM | > 100 µM | > 100 µM | >75.19 | 8.77 ± 0.47 µM | > 100 µM | 1330 ± 70 nM | – | –
O=C(NCCCCCCCCCCNC(=O)c1ccc2cc[nH]c2c1)c1ccc2cc[nH]c2c1 [Compound 24e, N,N′-(Decane-1,10-Diyl)Bis(1H-Indole-6-Carboxamide)] | > 20 µM | > 20 µM | > 20 µM | >3.78 | > 20 µM | > 20 µM | 5300 ± 366 nM | – | –
O=C(NCCCCCCCCCCNC(=O)c1ccncc1)c1ccncc1 [Compound 13e, N,N′-(Decane-1,10-Diyl)Diisonicotinamide] | > 100 µM | > 100 µM | > 100 µM | >2.07 | > 100 µM | > 100 µM | 48300 ± 3170 nM | – | –
Cc1nc(C)c(CN(CCO)Cc2nc(C)c(C)nc2C)nc1C [Compound 6i, 2-(Bis((3,5,6-Trimethylpyrazin-2-yl)Methyl)Amino)Ethanol] | > 100 µM | > 100 µM | > 100 µM | – | > 100 µM | > 100 µM | > 100000 nM | – | –
O=C(NCCCCCCCCCCNC(=O)c1cccnc1)c1cccnc1 [Compound 10e, N,N′-(Decane-1,10-Diyl)Dinicotinamide] | > 100 µM | > 100 µM | > 100 µM | 154.40 | 2.94 ± 0.25 µM | 38.6 ± 2.48 µM | – | – | –
COc1cc(/C=C/C(=O)NCCCCCCCCCCNC(=O)/C=C/c2cc(OC)c(OC)c(OC)c2)cc(OC)c1OC [Compound 29e, (2E,2′E)-N,N′-(Decane-1,10-Diyl)Bis(3-(3,4,5-Trimethoxyphenyl)Acrylamide)] | > 20 µM | > 20 µM | > 20 µM | >3.95 | > 20 µM | > 20 µM | 5070 ± 461 nM | – | –
Cc1nc(C)c(C(=O)NCCCCCCCCNC(=O)c2nc(C)c(C)nc2C)nc1C [Compound 8d, N,N′-(Octane-1,8-Diyl)Bis(3,5,6-Trimethylpyrazine-2-Carboxamide)] | 3.31 ± 0.14 µM | > 20 µM | 0.48 ± 0.003 µM | 24.45 | 6.35 ± 0.05 µM | 2.69 ± 0.46 µM | 110 ± 30 nM | – | –
O=C(NCCCCCCCCCCNC(=O)c1cc2ccccc2s1)c1cc2ccccc2s1 [Compound 22e, N,N′-(Decane-1,10-Diyl)Bis(Benzo[b]Thiophene-2-Carboxamide)] | > 20 µM | > 20 µM | > 20 µM | >1000 | > 20 µM | > 20 µM | – | – | –
O=C(/C=C/c1ccccc1)NCCOCCOCCOCCNC(=O)/C=C/c1ccccc1 [Compound 9k, (2E,2′E)-N,N′-(((Oxybis(Ethane-2,1-Diyl))Bis(Oxy))Bis(Ethane-2,1-Diyl))Bis(3-Phenylacrylamide)] | > 20 µM | > 20 µM | > 20 µM | >4.50 | > 20 µM | > 20 µM | 4450 ± 208 nM | – | –
O=C(NCCCCCCCCCCNC(=O)c1cc2ccccc2oc1=O)c1cc2ccccc2oc1=O [Compound 20e, N,N′-(Decane-1,10-Diyl)Bis(2-Oxo-2H-Chromene-3-Carboxamide)] | > 20 µM | > 20 µM | > 20 µM | – | > 20 µM | > 20 µM | > 20000 nM | – | –
COc1cc(/C=C/C(=O)NCCCCCCCCCCNC(=O)/C=C/c2cc(OC)c(O)c(OC)c2)cc(OC)c1O [Compound 28e, (2E,2′E)-N,N′-(Decane-1,10-Diyl)Bis(3-(4-Hydroxy-3,5-Dimethoxyphenyl)Acrylamide)] | > 20 µM | > 20 µM | > 20 µM | – | > 20 µM | > 20 µM | > 20000 nM | – | –
Cc1nc(C)c(CN(CCN(Cc2nc(C)c(C)nc2C)Cc2nc(C)c(C)nc2C)Cc2nc(C)c(C)nc2C)nc1C [Compound 6a, N^1,N^1,N^2,N^2-Tetrakis((3,5,6-Trimethylpyrazin-2-yl)Methyl)Ethane-1,2-Diamine] | > 100 µM | > 100 µM | > 100 µM | – | > 100 µM | 90.3 ± 3.41 µM | > 100000 nM | – | –
O=C(NCCCCCCCCCCNC(=O)c1ccccn1)c1ccccn1 [Compound 15e, N,N′-(Decane-1,10-Diyl)Dipicolinamide] | 37.7 ± 4.32 µM | 26.3 ± 5.36 µM | 21.5 ± 1.47 µM | 6.18 | 23.08 ± 0.12 µM | 54.6 ± 5.92 µM | 8850 ± 450 nM | – | –
O=C(NCCCCCCCCCCNC(=O)c1cc2ccccc2o1)c1cc2ccccc2o1 [Compound 21e, N,N′-(Decane-1,10-Diyl)Bis(Benzofuran-2-Carboxamide)] | > 20 µM | > 20 µM | > 20 µM | >30.08 | > 20 µM | > 20 µM | < 1000 nM | 697 nM | 665 ± 28 nM
Cc1nc(C)c(C(=O)NCCCNC(=O)c2nc(C)c(C)nc2C)nc1C [Compound 8a, N,N′-(Propane-1,3-Diyl)Bis(3,5,6-Trimethylpyrazine-2-Carboxamide)] | > 100 µM | > 100 µM | > 100 µM | – | > 100 µM | > 100 µM | > 100000 nM | – | –
Cc1nc(C)c(C(=O)NCCCCCCNC(=O)c2nc(C)c(C)nc2C)nc1C [Compound 8c, N,N′-(Hexane-1,6-Diyl)Bis(3,5,6-Trimethylpyrazine-2-Carboxamide)] | > 100 µM | > 100 µM | > 100 µM | – | > 100 µM | 46.6 ± 0.65 µM | 80400 ± 1360 nM | – | –
Cc1nc(C)c(CN(CCCCCCCCN(Cc2nc(C)c(C)nc2C)Cc2nc(C)c(C)nc2C)Cc2nc(C)c(C)nc2C)nc1C [Compound 6e, N^1,N^1,N^8,N^8-Tetrakis((3,5,6-Trimethylpyrazin-2-yl)Methyl)Octane-1,8-Diamine] | 62.7 ± 4.19 µM | 50.8 ± 1.35 µM | 66.36 ± 0.05 µM | 1.73 | > 100 µM | 85.4 ± 2.28 µM | 49500 ± 1610 nM | – | –
O=C(NCCCCCCCCCCNC(=O)c1cnccn1)c1cnccn1 [Compound 16e, N,N′-(Decane-1,10-Diyl)Bis(Pyrazine-2-Carboxamide)] | > 100 µM | > 100 µM | > 100 µM | – | > 100 µM | > 100 µM | 88100 ± 1370 nM | – | –
O=C(/C=C/c1ccccc1)OCCOCCOCCOC(=O)/C=C/c1ccccc1 [Compound 9l, (Ethane-1,2-Diylbis(Oxy))Bis(Ethane-2,1-Diyl) (2E,2′E)-Bis(3-Phenylacrylate)] | > 20 µM | > 20 µM | > 20 µM | – | > 20 µM | > 20 µM | > 20000 nM | – | –
COc1cc(C(=O)NCCCCCCCCCCNC(=O)c2cc(OC)c(OC)c(OC)c2)cc(OC)c1OC [Compound 34e, N,N′-(Decane-1,10-Diyl)Bis(3,4,5-Trimethoxybenzamide)] | > 20 µM | > 20 µM | > 20 µM | >3.42 | > 20 µM | > 20 µM | 5850 ± 408 nM | – | –
O=C(/C=C/c1ccccc1)OCCCCCCCCCCOC(=O)/C=C/c1ccccc1 [Compound 9h, Decane-1,10-Diyl (2E,2′E)-Bis(3-Phenylacrylate)] | > 20 µM | > 20 µM | > 20 µM | – | > 20 µM | > 20 µM | > 20000 nM | – | –
